From BindingDB's records for patent US20250213705 (Bright Peak Therapeutics, 2025)
pIC50, pKd, pKi: −log10 of the molar value.

Experiments:
[1] = target: T1, Glutamate carboxypeptidase 2 (Homo sapiens, UniProt Q04609); assay: SPR Analysis
Description: The interaction of PSMA-binding variants with human FOLH1 was measured with Surface Plasmon Resonance (SPR) technology. Biotinylated FOLH1 was captured at a concentration of 30 μg/mL onto a Streptavidin chip. […] After each cycle, needles were washed with 50% DMSO. To measure the association to the FOLH1 protein, the samples were injected with a flow rate of 30 μL/min for 90 s, followed by 1200 s buffer only to detect the dissociation. The used running buffer was 1×PBS with 0.05% Tween20 and 2% DMSO. The relative response units (RU, Y-axis) are plotted against time (s, X-axis) and analyzed in a kinetic 1:1 binding model. In a different setup, biotinylated FOLH1 was captured at a concentration of 0.8 μg/mL and the running buffer was 1×PBS with 0.05% Tween20.

[2] = target: T1, Glutamate carboxypeptidase 2; assay: Inhibition Assay
Description: Prepare a working solution of 100 μM Amplex Red reagent containing 0.25 U/mL HRP, 0.08 U/mL L-glutamate oxidase, 0.5 U/mL 1-glutamate-pyruvate transaminase, 200 μM L-alanine and keep protected from light. […] Final concentration is 5 nM. Transfer 10 μl/well of the inhibitor solution previously prepared in a separate 96 wells/plate. […] Incubate the reactions for 30 min at 37° C., protected from light. Because the assay is continuous (not terminated), fluorescence may be measured at multiple time points to follow the kinetics of the reactions. Measure the fluorescence in a fluorescence microplate reader using excitation in the range of 530-560 nm and emission detection at ˜590 nm. Ec50s were determined with GraphPad Prism. Ki is calculated based on Cheng-Prusoff equation.

T1 sequence (Q04609 whole entry): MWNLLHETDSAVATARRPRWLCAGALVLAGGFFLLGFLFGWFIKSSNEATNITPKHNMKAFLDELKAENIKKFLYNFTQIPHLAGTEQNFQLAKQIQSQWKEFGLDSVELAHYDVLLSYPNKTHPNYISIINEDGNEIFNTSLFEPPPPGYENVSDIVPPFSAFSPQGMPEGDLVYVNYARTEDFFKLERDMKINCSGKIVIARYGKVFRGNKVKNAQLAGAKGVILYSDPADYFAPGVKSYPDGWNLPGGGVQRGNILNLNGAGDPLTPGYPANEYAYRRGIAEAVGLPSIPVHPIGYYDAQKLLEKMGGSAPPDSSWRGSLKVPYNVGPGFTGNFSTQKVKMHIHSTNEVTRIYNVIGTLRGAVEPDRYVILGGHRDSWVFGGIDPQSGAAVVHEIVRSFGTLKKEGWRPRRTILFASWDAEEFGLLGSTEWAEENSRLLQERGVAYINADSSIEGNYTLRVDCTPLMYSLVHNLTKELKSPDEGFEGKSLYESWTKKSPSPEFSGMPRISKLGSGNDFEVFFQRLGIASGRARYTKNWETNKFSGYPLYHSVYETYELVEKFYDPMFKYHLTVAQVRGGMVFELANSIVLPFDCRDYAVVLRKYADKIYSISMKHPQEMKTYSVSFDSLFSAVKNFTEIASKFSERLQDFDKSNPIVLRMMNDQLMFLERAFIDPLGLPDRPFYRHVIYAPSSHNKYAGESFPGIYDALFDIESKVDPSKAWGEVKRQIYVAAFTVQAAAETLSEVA

Compound	pKd [1]	pIC50 [2]	pKi [2]
CC(=O)NCCOCCOCCOCCC(=O)NC[C@H]1CC[C@H](C(=O)N[C@@H](Cc2ccc3ccccc3c2)C(=O)NCCCC[C@H](NC(=O)N[C@@H](CC(=O)O)C(=O)O)C(=O)O)CC1 [US20250213705, Compound 23]	6.92	5.15	7.30
CC(=O)NCCOCCOCCOCCC(=O)NC[C@H]1CC[C@H](C(=O)N[C@@H](Cc2ccc3ccccc3c2)C(=O)NCCCC[C@H](NC(=O)N[C@@H](CS)C(=O)O)C(=O)O)CC1 [US20250213705, Compound 28]	–	4.67	6.82
CC(=O)NCCOCCOCCOCCC(=O)NC[C@H]1CC[C@H](C(=O)N[C@@H](CCCCNC(=O)C(F)(F)F)C(=O)NCCCC[C@H](NC(=O)N[C@@H](CCC(=O)O)C(=O)O)C(=O)O)CC1 [US20250213705, Compound 54]	–	7.05	9.20
CC(=O)NCCOCCOCCOCCC(=O)N(CCCOc1cc(C#N)cc(C#N)c1)CC(=O)N[C@@H](Cc1ccc2ccccc2c1)C(=O)NCCCC[C@H](NC(=O)N[C@@H](CCC(=O)O)C(=O)O)C(=O)O [US20250213705, Compound 78]	9.37	8.16	10.30
CC(=O)NCCOCCOCCOCCC(=O)N1C[C@H](NC(=O)CCCOc2cc(C#N)cc(C#N)c2)C[C@H]1C(=O)N[C@@H](Cc1ccc2ccccc2c1)C(=O)NCCCC[C@H](NC(=O)N[C@@H](CCC(=O)O)C(=O)O)C(=O)O [US20250213705, Compound 80]	8.61	8.63	10.77
CC(=O)NCCOCCOCCOCCC(=O)N[C@@H]1C[C@@H](C(=O)N[C@@H](Cc2ccc3ccccc3c2)C(=O)NCCCC[C@H](NC(=O)N[C@@H](CCC(=O)O)C(=O)O)C(=O)O)N(C(=O)COc2cc(C#N)cc(C#N)c2)C1 [US20250213705, Compound 81]	8.39	7.97	10.12
CC(=O)NCCCC[C@H](NC(=O)[C@H]1CC[C@H](CNC(=O)CCOCCOCCOCCNC(C)=O)CC1)C(=O)NCCCC[C@H](NC(=O)N[C@@H](CCC(=O)O)C(=O)O)C(=O)O [US20250213705, Compound 83]	–	8.54	10.68
CC(=O)NCCOCCOCCOCCC(=O)N[C@@H](Cc1cccc(C(=O)O)c1)C(=O)NCC(=O)N[C@@H](Cc1ccc2ccccc2c1)C(=O)NCCCC[C@H](NC(=O)N[C@@H](CCC(=O)O)C(=O)O)C(=O)O [US20250213705, Compound 84]	8.98	8.29	–
CC(=O)NCCOCCOCCOCCC(=O)N(CCCOc1cc(C(F)(F)F)cc(C(F)(F)F)c1)CC(=O)N[C@@H](Cc1ccc2ccccc2c1)C(=O)NCCCC[C@H](NC(=O)N[C@@H](CCC(=O)O)C(=O)O)C(=O)O [US20250213705, Compound 86]	8.93	7.23	9.37
CC(=O)NCCOCCOCCOCCC(=O)N1C[C@H](NC(=O)CCCOc2cc(C#N)cc(C#N)c2)C[C@H]1C(=O)NCC(=O)N[C@@H](Cc1ccc2ccccc2c1)C(=O)NCCCC[C@H](NC(=O)N[C@@H](CCC(=O)O)C(=O)O)C(=O)O [US20250213705, Compound 91]	8.44	7.58	9.73
CC(=O)NCCOCCOCCOCCC(=O)N[C@@H]1C[C@@H](C(=O)NCC(=O)N[C@@H](Cc2ccc3ccccc3c2)C(=O)NCCCC[C@H](NC(=O)N[C@@H](CCC(=O)O)C(=O)O)C(=O)O)N(C(=O)CCCOc2cc(C#N)cc(C#N)c2)C1 [US20250213705, Compound 92]	9.00	7.10	9.24
CC(=O)NCCOCCOCCOCCC(=O)N[C@@H](Cc1ccc(C(=O)O)cc1)C(=O)NCC(=O)N[C@@H](Cc1ccc2ccccc2c1)C(=O)NCCCC[C@H](NC(=O)N[C@@H](CCC(=O)O)C(=O)O)C(=O)O [US20250213705, Compound 94]	8.63	8.73	10.89
